Source: patent US6518050B1, “Process for producing and extracting aromatic compounds” (Revico, priority 1998, dated 2003)

Columns and labels:
Sporobolomyces odorus [1] = test: Biomass production (OD at 620 nm) of S. odorus cultures on distilling slops with added precursor or additives; assay type: cell-based; conditions: for Biomass (OD at 620 nm): culture period of 77 hours; for OD at 620 nm: measured after 77 hours, 0 ml: 8.74; for OD620: HNCH 5 g/vial, culture period of 150 hours
Description: During these culture processes, performed in a liquid medium, temperature was held at 24° C. and stirring was at 250 rpm (revolutions per minute).
Time dependency of the amount of biomass produced during cultivation of this yeast, was tracked by measuring the optical density (OD) of the cell suspension at 620 nm. On the spectrophotometer, 0 was obtained with a sample of pure medium (baseline).
In order to test the effect of adding methyl ricinoleate to cultures of S. odorus on distilling slops exclusively, 1 ml of this precursor was added to cellular suspensions of 60 ml of 24 hours of age. […] Indeed, instead of a final concentration, after 77 hours, of 1.02 mg/l on distilling slops or of 6.47 mg/l when castor oil was added, we obtained concentrations of 28.23 mg/l (FIG. 8). […] So it would become rapidly a limiting factor in obtaining free ricinoleic acid from castor oil. Adding directly usable methyl ricinoleate overcomes this problem and lactone production yields are improved.
In order to optimize the added amount of methyl ricinoleate, we produced cultures to which we added after 24 hours either 0.83%, or 1.66%, or 10% (v/v) of methyl ricinoleate.
Additions of RM were performed at instants t=0, 24, 48 and 72 hours. These cultures were produced in 250 ml erlenmeyers containing 5 g of HNCH and 60 ml of sown distilling slops at an initial yeast cell density of 0.2 units of OD620 (optical density measured at 620 nm).
With the aim of increasing the productivity of the system by implementing an in situ extraction of γ-decalactone, two series of tests were conducted; one at an initial cell density of 0.2 (control), the other at an initial cell density of 4.

Sporobolomyces odorus [2] = test: Toxicity of γ-decalactone: yeast growth kinetics on distilling slop medium containing lactone; assay type: cell-based
Description: Time dependency of the amount of biomass produced during cultivation of this yeast, was tracked by measuring the optical density (OD) of the cell suspension at 620 nm. On the spectrophotometer, 0 was obtained with a sample of pure medium (baseline). In order to determine whether γ-decalactone is toxic for cells, yeast growth kinetics on a distilling slop medium containing either 50 mg/l or 250 mg/l of lactone were obtained (FIG. 11). […] Beyond this point, a shift was observed. […] Indeed, the maximum achieved OD was 4 instead of 15 in the control. This same phenomenon was already observed by Ferron and al. (1996) who determined that the compatible dose with a non-zero cell growth rate is between 100 and 200 mg/l. This would partly explain why lactone concentrations of 250 to 300 mg/l were not exceeded under the retained experimental conditions.

| Structure (SMILES) | Biomass (OD at 620 nm) (Sporobolomyces odorus [1]; 0.06% at t = 0 hrs + 0.83% at t = 24 hrs) | OD at 620 nm (Sporobolomyces odorus [1]; 0.5 ml RM added to 60 ml culture after 24 hours) | Biomass (OD at 620 nm) (Sporobolomyces odorus [1]; 0.83% v/v at t = 24 hrs) | OD at 620 nm (Sporobolomyces odorus [1]; 1 ml RM added to 60 ml culture after 24 hours) | biomass, OD (Sporobolomyces odorus [1]; 1 ml added to 60 ml cultures of 24 hours of age, after 77 hours, 14.0 on distilling slops exclusively) | OD620 (Sporobolomyces odorus [1]; 4×0.03, 0.06 or 0.12% (v/v) of precursor) | OD620 (Sporobolomyces odorus [1]; 4×0.18% (v/v) of precursor) | OD at 620 nm (Sporobolomyces odorus [1]; 6 ml RM added to 60 ml culture after 24 hours) | effect on the yeast's growth (Sporobolomyces odorus [2]; 50 mg/l lactone in distilling slop medium, first 50 hours of culture) | microorganism growth (Sporobolomyces odorus [2]; 250 mg of lactone in distilling slop medium) | maximum achieved OD (Sporobolomyces odorus [2]; 250 mg of lactone, control 15) | toxicity exerted on yeast above (concentration) (Sporobolomyces odorus [2]; statement in section C 1.1) | toxic effect observed beyond (concentration) (Sporobolomyces odorus [2]; summary statement of section 6) |
| --- | --- | --- | --- | --- | --- | --- | --- | --- | --- | --- | --- | --- | --- |
| CCCCCC[C@@H](O)C/C=C\CCCCCCCC(=O)OC [methyl ricinoleate] | 8.4 | 8.00 | 8.0 | 7.94 | 11.06 | 8 | 15 | 8.98 | – | – | – | – | – |
| CCCCCCC1CCC(=O)O1 (stereo not shown) [γ-decalactone] | – | – | – | – | – | – | – | – | did not affect the yeast's growth | significantly reduced | 4 | above 150 mg/l | > 250 mg/L |
